Experimental data taken from PubChem BioAssay (NCI).
Where “and” joins values, the source holds several entries; their conditions need not be identical. Identical values can stand only once.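 Compound exposure: 48 hours, 5 concentrations, 96-well plates. The concentration for 50% growth inhibition is given as GI50. The concentration for full growth arrest is given as TGI.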

Key:
Assay in all cases: NCI tumour cell line growth inhibition, 48 h
A498 renal = tested on: A498 renal
CCRF-CEM leukemia = tested on: CCRF-CEM leukemia
MOLT-4 leukemia = tested on: MOLT-4 leukemia
K-562 leukemia = tested on: K-562 leukemia
OVCAR-3 ovarian = tested on: OVCAR-3 ovarian
SNB-19 CNS = tested on: SNB-19 CNS
UACC-62 melanoma = tested on: UACC-62 melanoma
SK-MEL-2 melanoma = tested on: SK-MEL-2 melanoma

SMILES	TGI (A498 renal)	TGI (CCRF-CEM leukemia)	TGI (MOLT-4 leukemia)	TGI (K-562 leukemia)	TGI (OVCAR-3 ovarian)	TGI (SNB-19 CNS)	TGI (UACC-62 melanoma)	TGI (SK-MEL-2 melanoma)	GI50 (A498 renal)	GI50 (CCRF-CEM leukemia)	GI50 (MOLT-4 leukemia)	GI50 (K-562 leukemia)	GI50 (OVCAR-3 ovarian)	GI50 (SNB-19 CNS)	GI50 (UACC-62 melanoma)	GI50 (SK-MEL-2 melanoma)
COc1cc2c(cc1-c1coc3cc(O)ccc3c1=O)OCO2	80.5 µM	> 100 µM	> 100 µM	> 100 µM	> 100 µM	43.1 µM	63.9 µM	> 100 µM								
CC(=O)Nc1cc2c3c(cccc3c1)-c1ccccc1-2	28.6 µM	> 100 µM	> 100 µM	> 100 µM	> 100 µM	> 100 µM	> 100 µM	> 100 µM	11.6 µM	0.992 µM	5.72 µM	> 100 µM	52.2 µM	40.2 µM	40 µM	70 µM
Cc1cnc(-c2ccc(-c3ccc(NC(=O)Nc4c(F)cc(F)cc4F)cc3F)c3c2C(=O)NC3)[nH]1	24.3 µM and 14.9 µM	> 100 µM	13.1 µM and 18.1 µM	2.96 µM and 11.5 µM	2.82 µM and 3.02 µM	14.4 µM and 15.5 µM	2.1 µM and 2.39 µM	14.3 µM and 21.6 µM	6.48 µM and 2.13 µM		0.0686 µM and 0.212 µM	0.329 µM and 0.66 µM	1.38 µM and 1.51 µM	2 µM and 2.51 µM	0.14 µM and 0.223 µM	1.57 µM and 3.75 µM
COC(=O)Nc1nc2ccc(C(=O)c3ccc(F)cc3)cc2[nH]1	4.47 µM				0.211 µM	15.4 µM	17.8 µM	> 49.8 µM	0.403 µM				0.0517 µM	0.322 µM	0.199 µM	4.14 µM
C=C(Br)COc1ccc2c(C)cc(=O)oc2c1	> 100 µM	> 100 µM	> 100 µM	> 100 µM	> 100 µM	> 100 µM		> 100 µM								
CC(=O)N[C@@H](Cc1ccc(OP(=O)(O)O)cc1)C(=O)N[C@H]1CCC(=O)N2CCC[C@@H](C(=O)NC3CCc4ccccc43)N2C1=O (some centres undefined)	> 25 µM	> 25 µM	> 25 µM	> 25 µM	> 25 µM	> 25 µM	> 25 µM	> 25 µM	> 25 µM	> 25 µM	> 25 µM	> 25 µM	> 25 µM	> 25 µM	> 25 µM	> 25 µM
Cc1cc(-c2cc(OC(=O)c3ccccc3)ccc2Cl)cc2nnc(Nc3ccc(OCCN4CCCC4)cc3)nc12			4.74 µM	0.324 µM	2.97 µM	3.37 µM	3.36 µM	3.45 µM	9.84 µM		2.01 µM	0.0472 µM	1.6 µM	1.86 µM	1.71 µM	1.78 µM
CN1CCN(CCC=C2c3ccccc3Sc3ccc(S(=O)(=O)N(C)C)cc32)CC1	13.2 µM and 17 µM	20.1 µM and 23 µM	7.95 µM and 7.1 µM	4.72 µM	16.3 µM and 22.7 µM		3.21 µM and 3.48 µM	4.32 µM and 6.09 µM	2.19 µM and 3.51 µM	3.12 µM and 4.36 µM	2.91 µM and 2.22 µM	2.21 µM and 1.63 µM	3.84 µM and 6.44 µM		1.66 µM and 1.76 µM	2.37 µM and 2.48 µM
COc1c(B(O)O)cccc1-c1nc2c(F)cc3n[nH]c(C)c3c2c2c1CCCC2		> 50 µM	> 50 µM	> 50 µM	> 50 µM	> 50 µM	8.39 µM	3.6 µM		0.373 µM	0.272 µM	1.68 µM	1.48 µM	1.17 µM	1.55 µM	1.45 µM
CCc1ncc(CO)n1Cc1cccc2ccccc12	> 100 µM			> 100 µM	> 100 µM	> 100 µM	> 100 µM	> 100 µM								
COC(=O)c1c2c(c(C)[n+]([O-])c1C)C(=O)C(NCc1ccc(O)cc1)=CC2=O	2.92 µM	4.35 µM		7.39 µM	0.82 µM		2.97 µM	3.72 µM	1.31 µM	1.6 µM		1.63 µM	0.266 µM		1.36 µM	1.79 µM
COc1ccc(/C=C/C(=O)/C=C(O)/C=C/c2ccc(OC)c(OC)c2)cc1OC		> 100 µM	> 100 µM	> 100 µM	> 100 µM	> 100 µM	38.3 µM	63.1 µM		3.66 µM	5.38 µM	1.16 µM	2.8 µM	28 µM	10.8 µM	13.8 µM
Cc1c(C(=O)c2ccccc2)[n+](=O)c2cc(F)c(F)cc2n1[O-]	24.9 µM	2.89 µM	80.4 µM	> 100 µM	3.04 µM	5.3 µM	2.83 µM		12.1 µM	1.18 µM	1.04 µM	1.97 µM	1.53 µM	2.3 µM	1.51 µM	
NC(=O)c1csc(-c2ccc(CO)o2)n1	> 100 µM		> 100 µM	> 100 µM	> 100 µM	> 100 µM	> 100 µM	> 100 µM								
CN(C)CCCCNc1ccc(NCCCCN(C)C)c2c1C(=O)c1c(O)ccc(O)c1C2=O	26.3 µM				2.97 µM	26 µM	29.1 µM	32.5 µM	13.5 µM				1.62 µM	13.2 µM	15.3 µM	18 µM
COC1C(=O)CCC2(CO2)C1(O)C1(C)OC1CC=C(C)C (centres undefined)	> 100 µM		83.2 µM	76.3 µM	> 100 µM	> 100 µM	80.8 µM	> 100 µM								
CCCCCCCCCCCCCCCCCC[S+](C)CC (centres undefined)	4.36 µM				2.33 µM				1.71 µM				1.08 µM			
CC#CC#C/C(=C/C=CC(=O)OC)SC	> 100 µM		> 100 µM	> 100 µM			> 100 µM	> 100 µM								
CCN(CC)CC(O)c1cc(-c2ccc(Cl)cc2)nc2c(C)c(Cl)ccc12 (centres undefined)		5.03 µM		4.26 µM	2.9 µM	3.44 µM	3.39 µM	3.61 µM		2.21 µM		1.66 µM	1.51 µM	1.86 µM	1.84 µM	2.1 µM
